Test system: mouse colon cancer cell line MC38
Assay: Anti-tumor action on mouse colon cancer cell line MC38 subcutaneous cancer-bearing model
Format: in vivo
Details: for average volume of tumors on day 14: C57/BL6 mice; for Number of cases where tumor was eliminated: observed until 28th day, cases/n; for mice in which cancer had been eliminated: single administration or combined use with 4H2
Method: Biological Example 1: Evaluation of Anti-Tumor Action by Combined Use of Compound A and Anti-PD-1 Antibody on Mouse Colon Cancer Cell Line MC38 Subcutaneous Cancer-Bearing Model (In Vivo)
For the compound A, mouse feed CRF-1 containing 0.0013% or 0.013% compound A was manufactured by Oriental Yeast Co., Ltd. so as to be administered at a dose of 2 or 20 mg/kg/day via diet. 4H2 as the anti-mouse PD-1 antibody, which had been prepared in KITAYAMA LABES CO., LTD., was obtained. C57/BL6 mouse colon cancer cell line MC38 was subcutaneously transplanted into dorsal parts of […] syngeneic mice (C57/BL6, female, 6 weeks old (Charles River Laboratories Japan, Inc.)) to produce MC38 subcutaneous cancer-bearing mice. On the day when the average of tumor volumes reached 150 mm^3, group assignment was carried out based on the tumor volumes (the day on which administration was started was defined as Day 0). To the MC38 subcutaneous cancer-bearing mice, PBS (on days 0, 6, 12, 18, and 24, intraperitoneal administration, n=9), 4H2 (on Day 0, 20 mg/kg/day and on days 6, 12, 18, and 24, 10 mg/kg/day, intraperitoneal administration, n=8), the compound A (on days 0 to 28, 2 mg/kg, administration via diet (n=9)), the compound A (on days 0 to 28, 20 mg/kg, administration via diet (n=9)), combined use of 4H2 and the compound A (compound A, 2 mg/kg (n=9)), and combined use of 4H2 and the compound A (compound A, 20 mg/kg (n=9)) were administered. Change of the volume of tumor was observed continuously until the 28th day. Note here that, from the viewpoint of the animal ethics, a mouse whose tumor exceeded 3000 mm^3 in volume was euthanatized, and evaluation for the group to which the euthanatized mouse belonged was stopped at this point.

## COc1cc2nccc(Oc3ccc(NC(=O)c4cc5c(n(-c6ccccc6)c4=O)CCCC5=O)nc3)c2cc1OC [Compound A, N-{5-[(6,7-dimethoxy-4-quinolinyl)oxy]-2-pyridinyl}-2,5-dioxo-1-phenyl-1,2,5,6,7,8-hexahydro-3-quinolinecarboxamide]
Compound A 2 mg/kg via diet days 0 to 28, alone or combined with 4H2 (20 then 10 mg/kg/day i.p.)
  average volume of tumors on day 14: 1379.5 mm^3
Compound A 2 mg/kg via diet days 0 to 28, alone or combined with 4H2
  Number of cases where tumor was eliminated: 1/9
Compound A 2 mg/kg
  mice in which cancer had been eliminated: one
Compound A 20 mg/kg via diet days 0 to 28, alone or combined with 4H2 (20 then 10 mg/kg/day i.p.)
  average volume of tumors on day 14: 639.3 mm^3
Compound A 20 mg/kg via diet days 0 to 28, alone or combined with 4H2
  Number of cases where tumor was eliminated: 1/9
Compound A 20 mg/kg
  mice in which cancer had been eliminated: one

— US20190099413A1, “DRUG FOR CANCER THERAPY CHARACTERIZED IN THAT AXL INHIBITOR AND IMMUNE CHECKPOINT INHIBITOR ARE ADMINISTERED IN COMBINATION” (ONO PHARMACEUTICAL CO., LTD., priority 2016, published 2019)
